Test [1] deals with Zymoseptoria tritici. The test is described as follows: Wheat leaf blight control efficacy test. In kind it is in vivo. Conditions: 12.5 ppm, as Test Example 4.
Test [2] relates to Botrytis cinerea. Nature of the test: Cucumber gray mold control efficacy test. Conditions: as Test Example 2. In kind it is in vivo.

Compound `CON(C(=O)c1cn(C)nc1C(F)F)C(C)Cc1ccc(C#CCOCc2ccccc2)cc1Cl` (stereo not drawn) [Compound I-18] registered a control efficacy in test [1] of 100%. As for `CON(C(=O)c1cn(C)nc1C(F)F)C(C)Cc1c(Cl)cc(Cl)cc1Cl` (stereo not drawn) [Control compound C], the values for the control efficacy in test [2] (12.5 ppm) and in test [2] (100 ppm) were 65% and 97%, respectively.

For the origin of these results see patent EP4800008A1, “PYRAZOLE DERIVATIVE, OR ACCEPTABLE SALT THEREOF OR N-OXIDE THEREOF, AGRICULTURAL AND HORTICULTURAL CHEMICAL, AND INDUSTRIAL MATERIAL PROTECTANT” (Kureha Corporation, priority 2023, dated 2025).
